Reference: article PMC2150390, “High-dose cyclosporin with etoposide--toxicity and pharmacokinetic interaction in children with solid tumours” (British Journal of Cancer, 1998)

Assay: Etoposide pharmacokinetics with and without cyclosporin (plasma HPLC, non-compartmental analysis)
Type: in vivo, human
Conditions: for Clearance Cl+ / Half-life t1/2+ / Area under drug concentration curve AUC+: with cyclosporin; for Clearance Cl+ / Half-life t1/2+ / Area under drug concentration curve AUC+ / Clearance Cl- / Half-life t1/2- / Area under drug concentration curve AUC-: etoposide 150 mg m-2 over 1 hour; for Area under drug concentration curve AUC+ / Area under drug concentration curve AUC-: plasma HPLC, non-compartmental; for Median area under the concentration time curve for etoposide: etoposide 150 mg m-2 i.v.
[1] = Table 3, patient 1, cyclosporin schedule A
[2] = Table 3, patient 1, cyclosporin schedule A, without cyclosporin
[3] = Table 3, patient 2, cyclosporin schedule A
[4] = Table 3, patient 2, cyclosporin schedule A, without cyclosporin
[5] = Table 3, patient 4, cyclosporin schedule A
[6] = Table 3, patient 4, cyclosporin schedule A, without cyclosporin
[7] = Table 3, patient 5, cyclosporin schedule A
[8] = Table 3, patient 5, cyclosporin schedule A, without cyclosporin
[9] = Table 3, patient 6, cyclosporin schedule A
[10] = Table 3, patient 6, cyclosporin schedule A, without cyclosporin
[11] = Table 3, patient 7, cyclosporin schedule A
[12] = Table 3, patient 7, cyclosporin schedule A, without cyclosporin
[13] = Table 3, patient 8, cyclosporin schedule A
[14] = Table 3, patient 8, cyclosporin schedule A, without cyclosporin
[15] = Table 3, patient 9, cyclosporin schedule B
[16] = Table 3, patient 9, cyclosporin schedule B, without cyclosporin
[17] = Table 3, patient 10, cyclosporin schedule B
[18] = Table 3, patient 10, cyclosporin schedule B, without cyclosporin
[19] = Table 3, patient 11, cyclosporin schedule B
[20] = Table 3, patient 11, cyclosporin schedule B, without cyclosporin
[21] = Table 3, patient 13, cyclosporin schedule B
[22] = Table 3, patient 13, cyclosporin schedule B, without cyclosporin
[23] = Table 3, patient 14, cyclosporin schedule A
[24] = Table 3, patient 14, cyclosporin schedule A, without cyclosporin
[25] = Table 3, patient 15, cyclosporin schedule A
[26] = Table 3, patient 15, cyclosporin schedule A, without cyclosporin
[27] = Table 3, patient 17, cyclosporin schedule A
[28] = Table 3, patient 17, cyclosporin schedule A, without cyclosporin
[29] = Table 3, patient 18, cyclosporin schedule A
[30] = Table 3, patient 18, cyclosporin schedule A, without cyclosporin

Mean change in etoposide AUC with cyclosporin (15 patients, paired, P < 0.001): +89% | Mean change in etoposide clearance with cyclosporin (15 patients, paired, P < 0.001): -48% | Clearance Cl+ [1]: 15.7 mL/min | Half-life t1/2+ [1]: 5.08 h | Area under drug concentration curve AUC+ [1]: 14.6 mg·min/mL | Clearance Cl- [2]: 28.5 mL/min | Half-life t1/2- [2]: 3.27 h | Area under drug concentration curve AUC- [2]: 8.1 mg·min/mL | Clearance Cl+ [3]: 8.6 mL/min | Half-life t1/2+ [3]: 9.28 h | Area under drug concentration curve AUC+ [3]: 26.2 mg·min/mL | Clearance Cl- [4]: 22.0 mL/min | Half-life t1/2- [4]: 3.43 h | Area under drug concentration curve AUC- [4]: 10.2 mg·min/mL | Clearance Cl+ [5]: 18.6 mL/min | Half-life t1/2+ [5]: 5.75 h | Area under drug concentration curve AUC+ [5]: 16.9 mg·min/mL | Clearance Cl- [6]: 36.5 mL/min | Half-life t1/2- [6]: 5.08 h | Area under drug concentration curve AUC- [6]: 8.6 mg·min/mL | Clearance Cl+ [7]: 15.2 mL/min | Half-life t1/2+ [7]: 3.15 h | Area under drug concentration curve AUC+ [7]: 7.9 mg·min/mL | Clearance Cl- [8]: 30.2 mL/min | Half-life t1/2- [8]: 2 h | Area under drug concentration curve AUC- [8]: 3.8 mg·min/mL | Clearance Cl+ [9]: 11.9 mL/min | Half-life t1/2+ [9]: 3.82 h | Area under drug concentration curve AUC+ [9]: 8.8 mg·min/mL | Clearance Cl- [10]: 15.9 mL/min | Half-life t1/2- [10]: 2.75 h | Area under drug concentration curve AUC- [10]: 6.6 mg·min/mL | Clearance Cl+ [11]: 10.8 mL/min | Half-life t1/2+ [11]: 4.72 h | Area under drug concentration curve AUC+ [11]: 10.7 mg·min/mL | Clearance Cl- [12]: 21.9 mL/min | Half-life t1/2- [12]: 1.72 h | Area under drug concentration curve AUC- [12]: 5.3 mg·min/mL | Clearance Cl+ [13]: 9.9 mL/min | Half-life t1/2+ [13]: 6.9 h | Area under drug concentration curve AUC+ [13]: 10.1 mg·min/mL | Clearance Cl- [14]: 27.2 mL/min | Half-life t1/2- [14]: 2.05 h | Area under drug concentration curve AUC- [14]: 3.6 mg·min/mL | Clearance Cl+ [15]: 10.0 mL/min | Half-life t1/2+ [15]: 4.9 h | Area under drug concentration curve AUC+ [15]: 16.4 mg·min/mL | Clearance Cl- [16]: 25.8 mL/min | Half-life t1/2- [16]: 3.47 h | Area under drug concentration curve AUC- [16]: 6.4 mg·min/mL | Clearance Cl+ [17]: 11.6 mL/min | Half-life t1/2+ [17]: 6.93 h | Area under drug concentration curve AUC+ [17]: 14.2 mg·min/mL | Clearance Cl- [18]: 28.6 mL/min | Half-life t1/2- [18]: 1.37 h | Area under drug concentration curve AUC- [18]: 5.8 mg·min/mL | Clearance Cl+ [19]: 16.2 mL/min | Half-life t1/2+ [19]: 5.23 h | Area under drug concentration curve AUC+ [19]: 14.3 mg·min/mL | Clearance Cl- [20]: 32.5 mL/min | Half-life t1/2- [20]: 2.93 h | Area under drug concentration curve AUC- [20]: 7.4 mg·min/mL | Clearance Cl+ [21]: 7.8 mL/min | Half-life t1/2+ [21]: 4.93 h | Area under drug concentration curve AUC+ [21]: 13.1 mg·min/mL | Clearance Cl- [22]: 15.3 mL/min | Half-life t1/2- [22]: 2.47 h | Area under drug concentration curve AUC- [22]: 6.7 mg·min/mL | Clearance Cl+ [23]: 14.3 mL/min | Half-life t1/2+ [23]: 6.68 h | Area under drug concentration curve AUC+ [23]: 15.8 mg·min/mL | Clearance Cl- [24]: 29.3 mL/min | Half-life t1/2- [24]: 2.57 h | Area under drug concentration curve AUC- [24]: 7.7 mg·min/mL | Clearance Cl+ [25]: 22.6 mL/min | Half-life t1/2+ [25]: 6.78 h | Area under drug concentration curve AUC+ [25]: 12.9 mg·min/mL | Clearance Cl- [26]: 38.1 mL/min | Half-life t1/2- [26]: 4.3 h | Area under drug concentration curve AUC- [26]: 7.7 mg·min/mL | Clearance Cl+ [27]: 20.2 mL/min | Half-life t1/2+ [27]: 6.12 h | Area under drug concentration curve AUC+ [27]: 13.4 mg·min/mL | Clearance Cl- [28]: 29.1 mL/min | Half-life t1/2- [28]: 3.85 h | Area under drug concentration curve AUC- [28]: 9.3 mg·min/mL | Clearance Cl+ [29]: 10.1 mL/min | Half-life t1/2+ [29]: 11.4 h | Area under drug concentration curve AUC+ [29]: 21.5 mg·min/mL | Clearance Cl- [30]: 12.8 mL/min | Half-life t1/2- [30]: 10.3 h | Area under drug concentration curve AUC- [30]: 17.1 mg·min/mL | Percentage increase in etoposide AUC, mean (cyclosporin 3-h infusion): 106% | Percentage increase in etoposide AUC, mean (cyclosporin 24-h infusion): 89% | Median area under the concentration time curve for etoposide (with high-dose cyclosporin): 12.5 mg·min/mL | Median area under the concentration time curve for etoposide (without cyclosporin): 7.2 mg·min/mL
Structure (SMILES): COc1cc([C@@H]2c3cc4c(cc3[C@@H](O[C@@H]3O[C@@H]5CO[C@@H](C)O[C@H]5[C@H](O)[C@H]3O)[C@H]3COC(=O)[C@H]23)OCO4)cc(OC)c1O [etoposide]
